This is an account of results in patent publication US10065990B2, “Cyclic peptide compound, and preparation method, pharmaceutical composition and use thereof” (HANGZHOU GUANYU BIO-MEDICAL CO., LTD, priority 2013, dated 2018).

Experiment in all cases: HDAC biochemical activity measurement (fluorescent substrate deacetylation)
Assay [1] has as its target T1, HDAC11 (Homo sapiens, UniProt Q96DB2).
T1 sequence (Q96DB2 1-347): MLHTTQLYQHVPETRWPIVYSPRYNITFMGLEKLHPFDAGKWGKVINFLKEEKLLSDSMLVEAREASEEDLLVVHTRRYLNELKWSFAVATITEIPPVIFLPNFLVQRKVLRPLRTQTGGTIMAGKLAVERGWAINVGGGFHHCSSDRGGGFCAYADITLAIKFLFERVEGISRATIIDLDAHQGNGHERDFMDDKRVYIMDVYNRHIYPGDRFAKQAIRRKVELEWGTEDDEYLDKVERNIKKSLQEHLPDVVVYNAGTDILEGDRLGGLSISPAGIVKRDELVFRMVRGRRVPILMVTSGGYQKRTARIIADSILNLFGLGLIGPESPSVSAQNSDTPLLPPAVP
Experimental: The chemical activity of the compound is determined according to the degree of deacetylation inhibition of the HDAC enzyme. This experiment measured the degree of deacetylation related to tumor proliferation and metastasis of HDAC1, HDAC2, HDAC3, HDAC8, HDAC11 five subtypes HDAC enzymes. After the substrate containing an acetylated lysine side chain and HDAC enzyme are labeled with a fluorescent label, the fluorescent substrate is de acetyl. The fluorescent labeled substrate is cleaved by the enzyme, and the fluorescent substance is released, which generates 460 nm emission light under the excitation of 360 nm light.
HDAC substrate was diluted with reaction buffer to 200M (reaction concentration of 20M), the HDAC enzyme was diluted to the appropriate concentration, then added different concentrations of the test compounds and acted at 37° C. 30 minutes, and then added the same volume of 2-times concentration substrate developing solution (developer), incubated at room temperature for 15 minutes.

The target in assay [2] is T2, HDAC8 (Homo sapiens, UniProt Q9BY41).
T2 sequence (Q9BY41 1-377): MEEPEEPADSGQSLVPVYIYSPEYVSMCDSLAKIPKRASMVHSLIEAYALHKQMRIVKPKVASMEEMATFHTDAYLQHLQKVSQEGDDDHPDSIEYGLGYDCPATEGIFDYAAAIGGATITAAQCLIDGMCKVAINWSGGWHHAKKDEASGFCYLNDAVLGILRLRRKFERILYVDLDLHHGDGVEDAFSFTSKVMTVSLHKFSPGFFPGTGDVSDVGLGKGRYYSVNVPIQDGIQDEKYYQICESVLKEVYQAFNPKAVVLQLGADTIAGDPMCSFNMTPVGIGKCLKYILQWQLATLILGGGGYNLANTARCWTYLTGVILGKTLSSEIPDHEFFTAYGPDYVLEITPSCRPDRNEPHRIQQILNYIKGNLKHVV
Conditions: 37° C. 30 minutes.

The target of assay [3] is HDAC3 (Homo sapiens, UniProt O15379).
In assay [4] the target is HDAC1 (Homo sapiens, UniProt Q13547).
The target of assay [5] is T3, HDAC7 (Homo sapiens, UniProt Q8WUI4).
T3 sequence (Q8WUI4 1-952): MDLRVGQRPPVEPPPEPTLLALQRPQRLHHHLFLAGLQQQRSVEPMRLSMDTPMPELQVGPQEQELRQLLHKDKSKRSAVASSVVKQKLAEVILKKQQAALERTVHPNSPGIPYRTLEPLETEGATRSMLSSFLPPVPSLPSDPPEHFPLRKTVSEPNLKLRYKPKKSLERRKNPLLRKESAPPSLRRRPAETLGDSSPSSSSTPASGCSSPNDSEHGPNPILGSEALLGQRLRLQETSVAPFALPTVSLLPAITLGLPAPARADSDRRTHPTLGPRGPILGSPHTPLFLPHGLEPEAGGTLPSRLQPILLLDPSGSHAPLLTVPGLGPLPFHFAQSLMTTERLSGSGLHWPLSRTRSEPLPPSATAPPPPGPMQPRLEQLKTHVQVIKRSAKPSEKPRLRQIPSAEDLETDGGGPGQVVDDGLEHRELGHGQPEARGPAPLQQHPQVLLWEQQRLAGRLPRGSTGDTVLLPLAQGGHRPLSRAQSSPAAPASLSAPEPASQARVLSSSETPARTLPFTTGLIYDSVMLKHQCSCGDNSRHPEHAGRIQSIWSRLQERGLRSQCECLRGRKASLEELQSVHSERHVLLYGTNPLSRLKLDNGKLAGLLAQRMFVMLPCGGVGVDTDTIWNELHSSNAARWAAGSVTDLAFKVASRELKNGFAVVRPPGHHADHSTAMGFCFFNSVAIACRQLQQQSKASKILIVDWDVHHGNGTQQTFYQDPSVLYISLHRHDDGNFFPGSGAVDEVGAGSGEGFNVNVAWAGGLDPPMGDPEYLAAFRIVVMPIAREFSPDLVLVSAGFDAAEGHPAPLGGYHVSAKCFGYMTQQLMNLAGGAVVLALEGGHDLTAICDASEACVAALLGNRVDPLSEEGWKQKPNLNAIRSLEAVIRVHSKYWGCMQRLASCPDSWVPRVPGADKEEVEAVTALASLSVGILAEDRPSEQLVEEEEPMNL
To be noted: HDAC7; 37° C. 30 minutes.

The mark [6] stands for this setting: HDAC1, 37° C. 30 minutes, read-out: IC50 HDAC1.
Where [7] appears, read: read-out: IC50 HDAC11, HDAC11, 37° C. 30 minutes.
The mark [8] stands for this setting: read-out: IC50 HDAC3, HDAC3, 37° C. 30 minutes.
The mark [9] stands for this setting: Table 3, column C, read-out: IC50 HDAC1, C (six-membered ring with substituents).
[10] abbreviates: Table 2, read-out: IC50 HDAC1, a (compounds of the present invention).
Setting [11] is: Table 3, read-out: IC50 HDAC1, D (non-substituent).

Like-named read-outs stand apart in the source and are kept apart here.

In general, IC50 refers to the point on the concentration scale where inhibition reaches its midpoint.
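For IC50 HDAC1 in this document: fluorogenic acetyl-lysine substrate (20 µM) deacetylated by HDAC1, then developer releases fluorophore read at 360 nm excitation and 460 nm emission, inhibitor incubated 30 min at 37 °C.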
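For IC50 HDAC1, C (six-membered ring with substituents) in this document: fluorogenic acetyl-lysine substrate (20 µM) deacetylated by HDAC1, then developer releases fluorophore read at 360 nm excitation and 460 nm emission, inhibitor incubated 30 min at 37 °C.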
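For IC50 HDAC1, D (non-substituent) in this document: fluorogenic acetyl-lysine substrate (20 µM) deacetylated by HDAC1, then developer releases fluorophore read at 360 nm excitation and 460 nm emission, inhibitor incubated 30 min at 37 °C.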
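For IC50 HDAC1, a (compounds of the present invention) in this document: fluorogenic acetyl-lysine substrate (20 µM) deacetylated by HDAC1, then developer releases fluorophore read at 360 nm excitation and 460 nm emission, inhibitor incubated 30 min at 37 °C.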
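For IC50 HDAC7 in this document: fluorogenic deacetylation assay using acetyl-lysine substrate at 20 µM, enzyme and compound incubated 30 min at 37 °C, then developer added, fluorescence read at 360/460 nm.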

Sequence of HDAC1 (Q13547 whole entry, species assumed): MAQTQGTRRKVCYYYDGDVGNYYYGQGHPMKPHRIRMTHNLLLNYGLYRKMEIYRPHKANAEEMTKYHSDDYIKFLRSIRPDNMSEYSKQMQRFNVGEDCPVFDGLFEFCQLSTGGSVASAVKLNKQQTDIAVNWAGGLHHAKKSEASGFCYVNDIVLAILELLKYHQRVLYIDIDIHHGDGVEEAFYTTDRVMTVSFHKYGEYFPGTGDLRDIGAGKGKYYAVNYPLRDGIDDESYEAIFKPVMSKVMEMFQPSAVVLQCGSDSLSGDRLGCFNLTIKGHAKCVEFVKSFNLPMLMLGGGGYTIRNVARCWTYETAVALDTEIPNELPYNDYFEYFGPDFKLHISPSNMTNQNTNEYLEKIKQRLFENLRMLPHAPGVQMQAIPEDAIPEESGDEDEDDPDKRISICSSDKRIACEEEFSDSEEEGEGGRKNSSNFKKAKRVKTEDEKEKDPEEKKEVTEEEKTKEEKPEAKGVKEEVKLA
Sequence of HDAC3 (O15379 whole entry, species assumed): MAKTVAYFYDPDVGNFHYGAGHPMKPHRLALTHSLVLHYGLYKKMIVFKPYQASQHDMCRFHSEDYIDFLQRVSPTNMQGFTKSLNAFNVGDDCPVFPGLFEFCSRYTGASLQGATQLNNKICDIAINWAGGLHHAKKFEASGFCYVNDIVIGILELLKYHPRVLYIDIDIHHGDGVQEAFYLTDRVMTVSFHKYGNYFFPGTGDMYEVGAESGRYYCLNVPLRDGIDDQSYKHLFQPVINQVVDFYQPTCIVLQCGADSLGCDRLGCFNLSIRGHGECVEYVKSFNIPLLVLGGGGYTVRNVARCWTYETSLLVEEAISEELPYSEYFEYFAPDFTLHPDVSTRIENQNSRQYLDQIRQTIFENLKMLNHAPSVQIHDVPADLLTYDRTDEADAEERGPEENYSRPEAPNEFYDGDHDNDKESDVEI
Sequence of HDAC3 (Q9Y618 395-489 partner limits assumed, species assumed): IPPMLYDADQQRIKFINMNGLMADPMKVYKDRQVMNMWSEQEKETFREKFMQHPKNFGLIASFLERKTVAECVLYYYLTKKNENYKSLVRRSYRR

In the case of `C/C=C1\NC(=O)c2ccc(SC)c(n2)CNC(=O)C[C@@H](/C=C/CCSC(=O)CCCCCCC)OC(=O)[C@H](Cc2ccccc2)NC1=O` [Compound 191], the IC50 turned out to be 85 nM in assay [1], 18 nM in assay [2], 62 nM in assay [3] and 92 nM in assay [4] (setting [6]). Further, the “IC50 HDAC7” value in assay [5] was “no activity”.
Take `C/C=C1\NC(=O)c2cc(F)cc(n2)CNC(=O)C[C@@H](/C=C/CCSC(C)=O)OC(=O)[C@H](CC)NC1=O` [Compound 58]: the 50% inhibitory concentration (IC50) in assay [1] (setting [7]) turned out to be 97 nM; in assay [2] it was 51 nM; in assay [3] (setting [8]), 29 nM; in assay [4] (setting [6]), 32 nM; in assay [4] (setting [9]) it was 32 nM. Moreover, the “IC50 HDAC7” value in assay [5] was “no activity”.
As for `C/C=C1\NC(=O)c2nc(cc(SC)n2)CNC(=O)C[C@@H](/C=C/CCSC(C)=O)OC(=O)[C@H](C(C)C)NC1=O` [Compound 216], the IC50 in assay [1] (setting [7]) was 81 nM; in assay [2], 52 nM; in assay [3] (setting [8]), 62 nM; in assay [4] (setting [6]) it was 155 nM. Moreover, the “IC50 HDAC7” value in assay [5] is on record as “no activity”.
For `C/C=C1\NC(=O)c2cc(F)cc(n2)CNC(=O)C[C@@H](/C=C/CCSC(=O)CCCCCCC)OC(=O)[C@H](CC)NC1=O` [Compound 55], the IC50 in assay [1] (setting [7]) is 83 nM; in assay [2], 43 nM; in assay [3] (setting [8]), 35 nM; in assay [4] (setting [6]) it was 13 nM; in assay [4] (setting [9]), 13 nM. The “IC50 HDAC7” value in assay [5] was “no activity”.
As for `C/C=C1\NC(=O)c2nc(ccc2F)CNC(=O)C[C@@H](/C=C/CCSC(=O)CCCCCCC)OC(=O)[C@H](C(C)C)NC1=O` [Compound 30], the 50% inhibitory concentration (IC50) is 84 nM in assay [1] (setting [7]); 43 nM in assay [2]; 34 nM in assay [3] (setting [8]); 12 nM in assay [4] (setting [6]); 12 nM in assay [4] (setting [9]). In addition, in assay [5], the “IC50 HDAC7” value is recorded as “no activity”.
As for `C/C=C1\NC(=O)c2nc(ccc2SC)CNC(=O)C[C@@H](/C=C/CCS)OC(=O)[C@H](C)NC1=O` [Compound 232], the IC50 in assay [1] was 152 nM; in assay [2] it was 59 nM; in assay [3] it was 21 nM; in assay [4] (setting [6]), 66 nM. In addition, the “IC50 HDAC7” value in assay [5] is “no activity”.
In the case of `C/C=C1\NC(=O)c2ccc(SC)c(n2)CNC(=O)C[C@@H](/C=C/CCSC(C)=O)OC(=O)[C@H](CC)NC1=O` [Compound 179], the IC50 in assay [1] amounted to 92 nM; in assay [2], 42 nM; in assay [3], 34 nM; in assay [4] (setting [6]), 73 nM. In assay [5], the “IC50 HDAC7” value is listed as “no activity”.
For the molecule `C/C=C1\NC(=O)c2cc(F)cc(n2)CCNC(=O)C[C@@H](/C=C/CCSC(C)=O)OC(=O)[C@H](C(C)C)NC1=O` [Compound 104], the 50% inhibitory concentration (IC50) in assay [1] amounted to 83 nM; in assay [2] it was 19 nM; in assay [3] it was 43 nM; in assay [4] (setting [6]), 51 nM. For the same molecule, in assay [5], the “IC50 HDAC7” value was “no activity”.
In the same order, the values of `C/C=C1\NC(=O)c2nc(ccc2SC)CNC(=O)C[C@@H](/C=C/CCSC(=O)CCCCCCC)OC(=O)[C@H](CC)NC1=O` [Compound 171] are 95 nM, 35 nM, 18 nM, 68 nM and “no activity”.
Take `CCCCCCCC(=O)SCC/C=C/[C@@H]1CC(=O)NCc2cccc(n2)C(=O)NC(CC)C(=O)N[C@@H](C(C)C)C(=O)O1` (some centres unmarked) [Compound 245]: the half-maximal inhibitory concentration (IC50) was 126 nM in assay [1] (setting [7]); 102 nM in assay [2]; 52 nM in assay [3] (setting [8]); 66 nM in assay [4] (setting [6]); < 100 nM in assay [4] (setting [10]). In addition, in assay [5], the “IC50 HDAC7” value is “no activity”.
Consider `C/C=C1\NC(=O)c2nc(ccc2F)CNC(=O)C[C@@H](/C=C/CCSC(=O)CCCCC)OC(=O)[C@H](C(C)C)NC1=O` [Compound 36], for which the concentration for half-maximal inhibition (IC50) was determined as 85 nM in assay [1] (setting [7]); 35 nM in assay [2]; 37 nM in assay [3] (setting [8]); 11 nM in assay [4] (setting [6]); 11 nM in assay [4] (setting [9]). For the same molecule, the “IC50 HDAC7” value in assay [5] is “no activity”.
On to `C/C=C1\NC(=O)c2nc(ccc2F)CNC(=O)C[C@@H](/C=C/CCSC(=O)CCCCCCC)OC(=O)[C@H](CC)NC1=O` [Example 54], for which the IC50 in assay [1] came to 99 nM; in assay [2], 34 nM; in assay [3], 34 nM; in assay [4] (setting [6]), 74 nM. Besides, the “IC50 HDAC7” value in assay [5] was “no activity”.
Regarding `C/C=C1\NC(=O)c2cccc(n2)CNC(=O)C[C@@H](/C=C/CCSC(C)=O)OC(=O)[C@H](CC)NC1=O` [Compound 10], the 50% inhibitory concentration (IC50) was found to be 103 nM in assay [1]; 50 nM in assay [2]; 41 nM in assay [3]; 92 nM in assay [4] (setting [6]); 92 nM in assay [4] (setting [11]). In addition, the “IC50 HDAC7” value in assay [5] is recorded as “no activity”.
For `C/C=C1\NC(=O)c2cccc(n2)CNC(=O)C[C@@H](/C=C/CCSC(=O)CCCCCCC)OC(=O)[C@@H](C)NC1=O` [Compound 236], the 50% inhibitory concentration (IC50) is 72 nM in assay [1] (setting [7]); 67 nM in assay [2]; 66 nM in assay [3] (setting [8]); 43 nM in assay [4] (setting [6]); < 50 nM in assay [4] (setting [10]). Further, in assay [5], the “IC50 HDAC7” value is “no activity”.
In the case of `C/C=C1\NC(=O)c2nc(F)cc(n2)CNC(=O)C[C@@H](/C=C/CCSC(C)=O)OC(=O)[C@H](C(C)C)NC1=O` [Compound 98], the half-inhibitory concentration (IC50) in assay [1] (setting [7]) worked out at 89 nM; in assay [2], 61 nM; in assay [3] (setting [8]), 62 nM; in assay [4] (setting [6]), 61 nM. For the same molecule, the “IC50 HDAC7” value in assay [5] is on record as “no activity”.
As for `C/C=C1\NC(=O)c2nc(ccc2F)CNC(=O)C[C@@H](/C=C/CCSC=O)OC(=O)[C@H](C(C)C)NC1=O` [Example 51], the IC50 in assay [1] was found to be 103 nM; in assay [2], 41 nM; in assay [3], 51 nM; in assay [4] (setting [6]), 46 nM. Moreover, the “IC50 HDAC7” value in assay [5] is reported as “no activity”.
As to `C/C=C1\NC(=O)c2cc(F)cc(n2)CNC(=O)C[C@@H](/C=C/CCSC(=O)CCCC)OC(=O)[C@H](C(C)C)NC1=O` [Compound 40], the 50% inhibitory concentration (IC50) was determined as 96 nM in assay [1] (setting [7]); 45 nM in assay [2]; 42 nM in assay [3] (setting [8]); 43 nM in assay [4] (setting [6]); 43 nM in assay [4] (setting [9]). Besides, the “IC50 HDAC7” value in assay [5] is “no activity”.
With `C/C=C1\NC(=O)c2cc(SC)cc(n2)CNC(=O)C[C@@H](/C=C/CCSC(=O)CCCCCC)OC(=O)[C@H](C(C)C)NC1=O` [Compound 151], the half-maximal inhibitory concentration (IC50) in assay [1] turned out to be 95 nM; in assay [2], 38 nM; in assay [3] it was 23 nM; in assay [4] (setting [6]), 61 nM. Further, the “IC50 HDAC7” value in assay [5] was “no activity”.
As to `C/C=C1\NC(=O)c2cccc(n2)CNC(=O)C[C@@H](/C=C/CCSC(C)=O)OC(=O)[C@H](CCCCN)NC1=O` [Compound 15], the concentration for half-maximal inhibition (IC50) is 106 nM in assay [1] (setting [7]); 43 nM in assay [2]; 57 nM in assay [3] (setting [8]); 191 nM in assay [4] (setting [6]); 191 nM in assay [4] (setting [11]). In addition, the “IC50 HDAC7” value in assay [5] is “no activity”.
